Data set [1] deals with HIV-1. Briefly: HIV-1 plaque reduction assay in HT4-6C cells. It is filed as cell-based. Particulars: HIV-1 plaque reduction EC50 compared with adefovir. A general note: Plaque reduction counts the foci of infection that form in a cell layer.
Data set [2] deals with Human Cytomegalovirus (HCMV). Put plainly: HCMV antiviral assay, HCMV DNA quantified by DNA hybridization in MRC-5 cells. The class given is cell-based.
The subject of data set [3] is HIV-1. The settings on record: cited from earlier work.
Data set [4] concerns HT4-6C Cells. The settings on record: Table 6; cited from earlier work.
A short description of data set [5]: Cytotoxicity in vitro in MRC-5 human lung fibroblast cells, visual estimate of 50% reduction in cell number. Particulars: human, MRC-5 human lung fibroblast cells.
For data set [6], the system named is Vaccinia. The settings on record: Vero cells, 1000 pfu/well, neutral red; average of 3 determinations; cited from earlier work.
For data set [7], the system named is Cowpox. Particulars: cited from earlier work.
The subject of data set [8] is Variola Major, Bangladesh. Particulars: cited from earlier work.
Data set [9] deals with Variola Major, Yamada. The settings on record: cited from earlier work.
For data set [10], the system named is Variola Minor Garcia. Particulars: cited from earlier work.
Data set [11] deals with Vero cells. The settings on record: 50% cytotoxic concentration in Vero cells; cited from earlier work.
A short description of data set [12]: Quantitative whole body autoradiograph after oral [2-14C] HDP-cidofovir. Particulars: mouse, 4 hours after a 5 mg/kg oral dose of [2-14C] HDP-cidofovir.
In data set [13] the test system is human lung fibroblast cells (MRC-5). Particulars: Table 7; cited from earlier work.
Data set [14] relates to HSV-1. The settings on record: Human HSV replication in MRC-5 human lung fibroblasts, DNA reduction, about 24 h; average of two experiments (HDP-CDV single determination in duplicate); cited from earlier work.
The subject of data set [15] is human lung fibroblast cells (MRC-5). Put plainly: Cytotoxicity in vitro in MRC-5 human lung fibroblast cells, visual estimate of 50% reduction in cell number. The settings on record: MRC-5 cells, 5 days; Table 2.
The mark [16] stands for this setting: Human CMV replication in MRC-5 human lung fibroblasts, DNA reduction, average of 3 to 6 determinations (ADV single replication in duplicate), read-out: EC50.

Where two headings read alike, the source gives them in different places.

`CCCCCCCCCCCCCCCCOCCCOP(=O)(O)COCCn1cnc2c(N)ncnc21` [HDP-ADV, 1-O-hexadecylpropanediol-3-adefovir]: in data set [1], the “logs more active than adefovir itself” value is “more than 5 logs”.

As to `Nc1ncnc2c1ncn2CCOCP(=O)(O)O` [Adefovir, adefovir, reference compound], the EC50 in data set [2] (Human betaherpesvirus 5, MRC5) was 210 nM; in data set [2] (Human betaherpesvirus 5, MRC5, 120 h, MRC-5 cells, 5 days, DNA hybridization, preliminary experiments, second TABLE 1, read-out: HCMV EC50), 55000 nM; in data set [3] (HIV replication in HT4-6C cells, plaque reduction, average of 4 experiments, Table 6, read-out: EC50), 8.2 µM; in data set [3] (HIV-1 LAI infected HT4-6C cells, 3 days, preliminary experiments, Table 5, read-out: EC50, μM, in HIV-1 plaque reduction assay), 16 µM. Besides, the half-maximal cytotoxic concentration (CC50) in data set [4] was more than 1000 µM. Besides, the CC50 at 5 days in [5] is more than 1000 µM.

For the molecule `CCCCCCCCCCCCCCCCCCOCCOP1(=O)COC(Cn2ccc(N)nc2=O)CO1` (stereo not drawn) [1-O-octadecylpropanediol-2-cCDV, 1-O-octadecylethanediol-2-cyclic cidofovir], in data set [2] (setting [16]), the 50% effective concentration (EC50) amounted to 55000 nM.

`CCCCCCCCCCCCCCCCOCCCOP(=O)(O)COC(CO)Cn1ccc(N)nc1=O` (stereo not drawn) [HDP-CDV, hexadecyloxypropyl-cidofovir]: the EC50 in data set [2] (Human betaherpesvirus 5, MRC5, Human CMV replication in MRC-5 human lung fibroblasts, DNA reduction, average of 3 to 6 determinations (ADV single replication in duplicate), read-out: EC50) is 0.002 nM; in [6], less than 0.03 µM; in data set [7], less than 0.03 µM; in data set [8], 0.0015 µM; in data set [9] it was 0.0015 µM; in data set [10], 0.0006 µM. Further, the half-maximal cytotoxic concentration (CC50) in data set [11] was more than 0.1 µM. In data set [12], the “tissue distribution of drug” value is “distributed primarily in the GI tract as well as organs including the lung, heart, liver, and kidney”. In data set [5], the CC50 at 5 days was 10 µM.

`CCCCCCCCCCCCCCCCCCOCCOP(=O)(O)COC(CO)Cn1ccc(N)nc1=O` (stereo not drawn) [1-O-octadecylpropanediol-2-CDV, 1-O-octadecylethanediol-2-cidofovir]: in [2] (setting [16]), the 50% effective concentration (EC50) worked out at 40 nM.

As for `CCCCCCCCCCCCCCCCCCOCCCOP(=O)(O)COC(CO)Cn1ccc(N)nc1=O` (stereo not drawn) [1-O-octadecylpropanediol-3-CDV, 1-O-octadecylpropanediol-3-cidofovir], the EC50 was 0.03 nM in data set [2] (setting [16]) and 0.003 µM in [14]. Also, the cytotoxic concentration (CC50) in data set [13] and in data set [15] was 32 µM throughout.

On to `CCCCCCCCCCCCCCCCOP1(=O)CO[C@@H](Cn2ccc(N)nc2=O)CO1` (stereo partly drawn) [Hexadecyl-cCDV, hexadecyl cyclic cidofovir], for which the concentration for a half-maximal effect (EC50) in data set [2] (setting [16]) came out at 100 nM. Moreover, in [15], the 50% cytotoxic concentration (CC50) was 6.5 µM.

A word on the EC50: it is the concentration giving half of the maximal effect. For orientation: CC50 means the concentration at which the toxic effect on the cells reaches its halfway point.

(Values after patent US20070003608A1, “Compounds, compositions and methods for the treatment of viral infections and other medical disorders” (priority 2005, published 2007).)
